Columns and labels:
[1] = target: T1, CDK2 (Homo sapiens, UniProt P24941); assay: CDK protein degradation activity (Western blotting), CDK2; type: cell-based; details: MDA-MB-231 cells, 16 hours, Western blot
T1 construct: endogenous in cells; host or cells: MDA-MB-231
Procedure, shortened: (§1)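 MDA-MB-231 cells treated 16 h with compound at 100 nM, 1 μM or 10 μM, with DMSO as control. Lysates run on SDS-PAGE and immunoblotted for CDK2, CDK9 and tubulin; band levels quantified by densitometry.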

[2] = target: T2, CDK9 (Homo sapiens, UniProt P50750); assay: CDK protein degradation activity (Western blotting), CDK9; type: cell-based; details: MDA-MB-231 cells, 16 hours, Western blot
T2 construct: endogenous in cells; host or cells: MDA-MB-231
T2 sequence (P50750 whole entry): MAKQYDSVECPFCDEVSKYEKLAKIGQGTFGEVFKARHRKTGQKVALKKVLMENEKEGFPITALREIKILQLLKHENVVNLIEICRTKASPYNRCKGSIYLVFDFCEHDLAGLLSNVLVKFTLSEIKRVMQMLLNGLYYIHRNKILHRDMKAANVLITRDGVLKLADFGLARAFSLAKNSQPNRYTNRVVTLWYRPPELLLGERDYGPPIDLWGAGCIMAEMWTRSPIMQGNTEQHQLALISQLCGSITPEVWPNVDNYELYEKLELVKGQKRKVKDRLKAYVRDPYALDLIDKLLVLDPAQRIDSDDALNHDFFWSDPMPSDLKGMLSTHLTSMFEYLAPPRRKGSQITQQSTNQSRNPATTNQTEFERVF
Procedure, shortened: as §1

| SMILES | Enzyme degradation CDK2 (% remaining) @ 0.1 μM [1] | Enzyme degradation CDK2 (% remaining) @ 1 μM [1] | Enzyme degradation CDK2 (% remaining) @ 10 μM [1] | Enzyme degradation CDK9 (% remaining) @ 0.1 μM [2] | Enzyme degradation CDK9 (% remaining) @ 1 μM [2] | Enzyme degradation CDK9 (% remaining) @ 10 μM [2] |
| --- | --- | --- | --- | --- | --- | --- |
| O=C1CC[C@H](N2C(=O)c3cc(F)c(N4CCC5(CC4)CC(N4CCN(c6ccc(Nc7ncnc8c7ncn8[C@H]7C[C@@H](NC(=O)Cc8ccccc8)C7)cc6)CC4)C5)cc3C2=O)C(=O)N1 [Compound 244, N-((1s,3s)-3-(6-((4-(4-(7-(2-(2,6-dioxopiperidin-3-yl)-6-fluoro-1,3-dioxoisoindolin-5-yl)-7-azaspiro[3.5]nonan-2-yl)piperazin-1-yl)phenyl)amino)-9H-purin-9-yl)cyclobutyl)-2-phenylacetamide] | 70% | 50% | 40% | 60% | 0% | 0% |
| O=C1CC[C@H](N2C(=O)c3cccc(OCC(=O)N4CCC(OCCN5CCN(c6ccc(Nc7ncnc8c7ncn8C7CC(NC(=O)Cc8ccccc8)C7)cc6)CC5)CC4)c3C2=O)C(=O)N1 (some centres unmarked) [Compound 246, N-((1s,3s)-3-(6-((4-(4-(2-((1-(2-((2-(2,6-dioxopiperidin-3-yl)-1,3-dioxoisoindolin-4-yl)oxy)acetyl)piperidin-4-yl)oxy)ethyl)piperazin-1-yl)phenyl)amino)-9H-purin-9-yl)cyclobutyl)-2-phenylacetamide] | 60% | 40% | 40% | 80% | 30% | 0% |
| O=C1CC[C@H](N2C(=O)c3ccc(NCC(=O)N4CCC(OCCN5CCN(c6ccc(Nc7ncnc8c7ncn8[C@H]7C[C@@H](NC(=O)Cc8ccccc8)C7)cc6)CC5)CC4)cc3C2=O)C(=O)N1 [Compound 248, N-((1s,3s)-3-(6-((4-(4-(2-((1-((2-(2,6-dioxopiperidin-3-yl)-1,3-dioxoisoindolin-5-yl)glycyl)piperidin-4-yl)oxy)ethyl)piperazin-1-yl)phenyl)amino)-9H-purin-9-yl)cyclobutyl)-2-phenylacetamide] | 50/50/50% | 50/50/50% | 50/50/50% | 50% | 20% | 0% |
| O=C1CC[C@@H](c2ccc(OCC(=O)N3CCC(OCCN4CCN(c5ccc(Nc6ncnc7c6ncn7C6CC(NC(=O)Cc7ccccc7)C6)cc5)CC4)CC3)cc2)C(=O)N1 (some centres unmarked) [Compound 250, N-((1s,3s)-3-(6-((4-(4-(2-((1-(2-(4-(2,6-dioxopiperidin-3-yl)phenoxy)acetyl)piperidin-4-yl)oxy)ethyl)piperazin-1-yl)phenyl)amino)-9H-purin-9-yl)cyclobutyl)-2-phenylacetamide] | 60% | 40% | 30% | 40% | 10% | 0% |
| O=C1CC[C@@H](c2cccc(OCC(=O)N3CCC(OCCN4CCN(c5ccc(Nc6ncnc7c6ncn7C6CC(NC(=O)Cc7ccccc7)C6)cc5)CC4)CC3)c2)C(=O)N1 (some centres unmarked) [Compound 251, N-((1s,3s)-3-(6-((4-(4-(2-((1-(2-(3-(2,6-dioxopiperidin-3-yl)phenoxy)acetyl)piperidin-4-yl)oxy)ethyl)piperazin-1-yl)phenyl)amino)-9H-purin-9-yl)cyclobutyl)-2-phenylacetamide] | 0/0/0% | 0/0/0% | 0/0/0% | 30% | 0% | 0% |
| O=C1CCC(N2C(=O)c3ccc(N4CCC(OCCN5CCN(c6ccc(Nc7ncnc8c7ncn8[C@H]7C[C@@H](NC(=O)Cc8ccccc8)C7)cc6)CC5)CC4)cc3C2=O)C(=O)N1 (some centres unmarked) [Compound 252, N-((1s,3s)-3-(6-((4-(4-(2-((1-(2-(2,6-dioxopiperidin-3-yl)-1,3-dioxoisoindolin-5-yl)piperidin-4-yl)oxy)ethyl)piperazin-1-yl)phenyl)amino)-9H-purin-9-yl)cyclobutyl)-2-phenylacetamide] | 30% | 30% | 50% | 60/60/60% | 60/60/60% | 60/60/60% |
| O=C1CC[C@H](N2C(=O)c3cccc(NCC(=O)N4CCC(CCCN5CCN(c6ccc(Nc7ncnc8c7ncn8[C@H]7C[C@@H](NC(=O)Cc8ccccc8)C7)cc6)CC5)CC4)c3C2=O)C(=O)N1 [Compound 253, N-((1s,3s)-3-(6-((4-(4-(3-(1-((2-(2,6-dioxopiperidin-3-yl)-1,3-dioxoisoindolin-4-yl)glycyl)piperidin-4-yl)propyl)piperazin-1-yl)phenyl)amino)-9H-purin-9-yl)cyclobutyl)-2-phenylacetamide] | 20/—/20% |  | 20/—/20% | 0/0/0% | 0/0/0% | 0/0/0% |
| O=C1CCC(N2C(=O)c3cccc(OCC(=O)N4CCC(CCCN5CCN(c6ccc(Nc7ncnc8c7ncn8[C@H]7C[C@@H](NC(=O)Cc8ccccc8)C7)cc6)CC5)CC4)c3C2=O)C(=O)N1 (some centres unmarked) [Compound 254, N-((1s,3s)-3-(6-((4-(4-(3-(1-(2-((2-(2,6-dioxopiperidin-3-yl)-1,3-dioxoisoindolin-4-yl)oxy)acetyl)piperidin-4-yl)propyl)piperazin-1-yl)phenyl)amino)-9H-purin-9-yl)cyclobutyl)-2-phenylacetamide] | 50% | 30% | 20% | 50% | 20% | 0% |

More lines, now with the values ahead:

| Enzyme degradation CDK2 (% remaining) @ 0.1 μM [1] | Enzyme degradation CDK2 (% remaining) @ 1 μM [1] | Enzyme degradation CDK2 (% remaining) @ 10 μM [1] | Enzyme degradation CDK9 (% remaining) @ 0.1 μM [2] | Enzyme degradation CDK9 (% remaining) @ 1 μM [2] | Enzyme degradation CDK9 (% remaining) @ 10 μM [2] | SMILES |
| --- | --- | --- | --- | --- | --- | --- |
| 40% | 30% | 30% | 60% | 10% | 0% | O=C1CC[C@H](N2C(=O)c3ccc(OCC(=O)N4CCC(CCCN5CCN(c6ccc(Nc7ncnc8c7ncn8[C@H]7C[C@@H](NC(=O)Cc8ccccc8)C7)cc6)CC5)CC4)cc3C2=O)C(=O)N1 [Compound 256, N-((1s,3s)-3-(6-((4-(4-(3-(1-(2-((2-(2,6-dioxopiperidin-3-yl)-1,3-dioxoisoindolin-5-yl)oxy)acetyl)piperidin-4-yl)propyl)piperazin-1-yl)phenyl)amino)-9H-purin-9-yl)cyclobutyl)-2-phenylacetamide] |
| 0% | 20% | 20% | 80% | 50% | 50% | COc1ccc(C(=O)N2CCC(CCCN3CCN(c4ccc(Nc5ncnc6c5ncn6[C@H]5C[C@@H](NC(=O)Cc6ccccc6)C5)cc4)CC3)CC2)cc1N1CCC(=O)NC1=O [Compound 257, N-((1s,3s)-3-(6-((4-(4-(3-(1-(3-(2,4-dioxotetrahydropyrimidin-1(2H)-yl)-4-methoxybenzoyl)piperidin-4-yl)propyl)piperazin-1-yl)phenyl)amino)-9H-purin-9-yl)cyclobutyl)-2-phenylacetamide] |
| 20/20/20% | 20/20/20% | 20/20/20% | 20% | 0% | 0% | O=C1CC[C@@H](c2ccc(OCC(=O)N3CCC(CCCN4CCN(c5ccc(Nc6ncnc7c6ncn7[C@H]6C[C@@H](NC(=O)Cc7ccccc7)C6)cc5)CC4)CC3)cc2)C(=O)N1 [Compound 258, N-((1s,3s)-3-(6-((4-(4-(3-(1-(2-(4-(2,6-dioxopiperidin-3-yl)phenoxy)acetyl)piperidin-4-yl)propyl)piperazin-1-yl)phenyl)amino)-9H-purin-9-yl)cyclobutyl)-2-phenylacetamide] |
| 0/0/0% | 0/0/0% | 0/0/0% | 0/0/0% | 0/0/0% | 0/0/0% | O=C1CC[C@@H](c2cccc(OCC(=O)N3CCC(CCCN4CCN(c5ccc(Nc6ncnc7c6ncn7C6CC(NC(=O)Cc7ccccc7)C6)cc5)CC4)CC3)c2)C(=O)N1 (some centres unmarked) [Compound 259, N-((1s,3s)-3-(6-((4-(4-(3-(1-(2-(3-(2,6-dioxopiperidin-3-yl)phenoxy)acetyl)piperidin-4-yl)propyl)piperazin-1-yl)phenyl)amino)-9H-purin-9-yl)cyclobutyl)-2-phenylacetamide] |
| 20/20/20% | 20/20/20% | 20/20/20% | 60/60/60% | 60/60/60% | 60/60/60% | O=C1CCC(N2C(=O)c3cccc(N4CCC(OCCN5CCN(c6ccc(Nc7ncnc8c7ncn8[C@H]7C[C@@H](NC(=O)Cc8ccccc8)C7)cc6)CC5)CC4)c3C2=O)C(=O)N1 (some centres unmarked) [Compound 260, N-((1s,3s)-3-(6-((4-(4-(2-((1-(2-(2,6-dioxopiperidin-3-yl)-1,3-dioxoisoindolin-4-yl)piperidin-4-yl)oxy)ethyl)piperazin-1-yl)phenyl)amino)-9H-purin-9-yl)cyclobutyl)-2-phenylacetamide] |
